Data set [1] relates to tau proteins. Conditions: tauopathy model mice, Non-Patent Document 3; cited from earlier work.
In data set [2] the test system is Drosophila expressing human tau in neurons (elav/Y; hTau/+). Nature of the data set: Motor function (climbing assay, negative gravitaxis) of Drosophila expressing human tau in neurons. It is filed as in vivo. To be noted: 1 mM in food, versus non-administration group, FIG. 5. As to the method:
(§1) Male F1 Drosophila one to three days after emergence were bred under an environment consisting of a temperature of 25±3° C., a humidity of 60±10%, and a light-dark cycle of 12 hours. […] The flies were transferred into a vial filled with fresh food once every two weeks.
The motor function of Drosophila of was measured by performing climbing assay and evaluating negative gravitaxis. The climbing assay was carried out under the following conditions. Drosophila was transferred into an empty vial containing no food, and the vial was then hit, so that flies fell to the bottom. Thereafter, the movement of the flies climbing up the wall was captured on video. The flies, which were below the line drawn at the position 3 cm from the bottom 10 seconds after they had fallen to the bottom, were defined as “flies that could not climb”, and flies, which were above the aforementioned line, were defined as “flies that could climb”. The number of flies of each type was counted. The total number of flies in the vial was set at 100%, and the percentage of the flies that could climb was calculated.

Data set [3] concerns the target T1, human tau protein (Homo sapiens, UniProt P10636).
T1 construct: expressed in transfected cells; host or cells: transgenic Drosophila (GAL4-UAS; gmr-gal4 compound eyes or elav^C155-gal4 neurons), fly heads
Nature of the data set: Quantification of aggregated tau in brain of Drosophila expressing human tau in neurons (elav/Y; hTau/+). Conditions: hTau/+ flies, 1 mM in food, bred 1 month, versus non-administration group (100%), FIG. 4. It counts as in vivo. As to the method: Thereafter, the recovered heads were cryopreserved at −80° C. […] The obtained supernatant was recovered in another ultracentrifuge tube.
Using the screening system established in 3 above, the tau protein aggregation-inhibiting effect of rose bengal, which is a fluorone dye, was evaluated. […] Thereafter, the accumulation of aggregated tau in brain was quantified according to the procedures in (2) above.

The test system of data set [4] is wild-type Drosophila. Conditions: in vivo. The protocol:
as §1

The test system of data set [5] is Drosophila expressing human tau in mushroom body neurons (mb/Y; hTau/+). Nature of the data set: Olfactory memory (discrimination learning test with odor and electric shock) of Drosophila expressing human tau in mushroom body neurons. It counts as in vivo. Conditions: hTau/+ flies, administered over 1 week, versus non-administration, FIG. 9. As to the method:
as §1

Data set [6] deals with wild-type Drosophila. Nature of the data set: Survival rate of wild-type Drosophila. To be noted: wild-type flies, 1 mM in food, versus non-administration group, FIG. 7. The protocol: as §1
Drosophila were bred under the conditions described in (1) above, and the number of surviving flies was counted every three days, and the survival rate was then calculated.
As a control, the Drosophila in the non-administration group was used.

T1 sequence (P10636 1-441 isoform P10636-8): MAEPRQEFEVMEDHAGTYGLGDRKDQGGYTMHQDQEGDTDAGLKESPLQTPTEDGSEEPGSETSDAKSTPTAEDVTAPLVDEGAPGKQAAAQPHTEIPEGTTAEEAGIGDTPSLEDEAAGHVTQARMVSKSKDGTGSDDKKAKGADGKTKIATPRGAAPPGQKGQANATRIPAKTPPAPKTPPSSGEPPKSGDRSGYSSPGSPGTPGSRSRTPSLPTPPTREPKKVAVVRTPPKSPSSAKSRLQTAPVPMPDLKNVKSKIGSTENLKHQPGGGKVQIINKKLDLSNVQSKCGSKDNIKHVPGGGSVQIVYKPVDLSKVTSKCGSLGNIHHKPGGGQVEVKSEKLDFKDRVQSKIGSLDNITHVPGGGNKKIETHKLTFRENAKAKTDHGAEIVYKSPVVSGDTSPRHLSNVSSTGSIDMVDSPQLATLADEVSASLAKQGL

Take `O=C1NC(=O)C(=O)C(=O)N1` [alloxan]: in data set [1], the “accumulation of tau proteins in the brains” value is reported as “reduced”.
Take `O=C([O-])c1c(Cl)c(Cl)c(Cl)c(Cl)c1-c1c2cc(I)c(=O)c(I)c-2oc2c(I)c([O-])c(I)cc12.[Na+].[Na+]` [rose bengal]: the “motor function (percentage of flies that could climb)” value in data set [2] is on record as “recovered”. In data set [3], the “accumulated amount of aggregated tau in brain” value was “reduction”. Moreover, the values for the olfactory memory entry in data set [4] and in data set [5] were “no significant change” and “significantly improved”, respectively.
`CN(C)c1ccc2nc3ccc(=[N+](C)C)cc-3sc2c1` [methylene blue]: the “motor function (percentage of flies that could climb)” value in data set [2] is recorded as “recovered”. Also, the “accumulated amount of aggregated tau in brain” value in data set [3] is “reduction”. Also, in data set [6], the survival rate entry is recorded as “significantly reduced”.

The record behind these values is US10478511B2, “Therapeutic agent for tauopathy and method for screening thereof” (National Center for Geriatrics and Gerontology, priority 2014, dated 2019).
